# Columns and labels:
# [1] = molecular target: T1, Amine oxidase [flavin-containing] B (Rattus norvegicus, UniProt P19643); test: Inhibition of rat brain synaptosome MAO-B
# T1 sequence (P19643 whole entry): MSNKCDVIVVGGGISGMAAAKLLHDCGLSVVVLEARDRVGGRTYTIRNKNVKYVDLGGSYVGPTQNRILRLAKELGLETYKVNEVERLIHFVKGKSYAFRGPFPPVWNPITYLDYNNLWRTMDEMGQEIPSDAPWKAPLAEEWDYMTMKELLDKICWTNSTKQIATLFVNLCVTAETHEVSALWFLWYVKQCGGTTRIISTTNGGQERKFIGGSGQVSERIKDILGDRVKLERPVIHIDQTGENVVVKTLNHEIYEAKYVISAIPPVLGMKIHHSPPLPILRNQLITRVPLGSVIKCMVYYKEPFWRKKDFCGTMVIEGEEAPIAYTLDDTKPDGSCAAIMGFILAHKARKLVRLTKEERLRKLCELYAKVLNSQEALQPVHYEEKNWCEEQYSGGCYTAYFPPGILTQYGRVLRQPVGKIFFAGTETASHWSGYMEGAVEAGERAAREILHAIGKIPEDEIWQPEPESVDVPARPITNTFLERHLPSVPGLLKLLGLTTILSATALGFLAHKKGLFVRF
# [2] = molecular target: T2, Amine oxidase [flavin-containing] A (Rattus norvegicus, UniProt P21396); test: Inhibition of rat brain synaptosome MAO-A
# T2 sequence (P21396 whole entry): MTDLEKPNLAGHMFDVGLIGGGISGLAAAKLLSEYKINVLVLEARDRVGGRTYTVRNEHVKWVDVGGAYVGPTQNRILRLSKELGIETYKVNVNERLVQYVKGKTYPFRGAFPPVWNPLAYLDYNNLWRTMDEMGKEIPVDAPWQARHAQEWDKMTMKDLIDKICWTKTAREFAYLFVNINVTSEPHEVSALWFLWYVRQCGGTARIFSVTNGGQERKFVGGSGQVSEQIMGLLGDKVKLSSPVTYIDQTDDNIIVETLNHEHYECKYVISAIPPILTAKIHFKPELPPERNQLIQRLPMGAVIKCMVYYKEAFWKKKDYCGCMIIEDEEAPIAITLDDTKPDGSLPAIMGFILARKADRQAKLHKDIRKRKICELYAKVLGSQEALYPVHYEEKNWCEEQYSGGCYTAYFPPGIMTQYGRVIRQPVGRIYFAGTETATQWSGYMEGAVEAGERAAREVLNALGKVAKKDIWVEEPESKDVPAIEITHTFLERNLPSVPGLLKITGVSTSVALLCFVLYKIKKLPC
compound,measurement,setting,value
Cc1c(C(=O)CC(C#N)C#N)c(=O)n(-c2ccccc2)n1C,IC50,[1],13 nM
same,IC50,[2],2.3 nM

# Source: BindingDB's records for PubMed 31761383 (n/a, 2020)
